Consider 5 compounds from US20060252679A1, “Preventive and/or trerapeutic drgs for itch” (priority 2002, published 2006).

One assay concerns the target T1, GPR4 (Homo sapiens, UniProt P46093).
T1 construct: expressed in transfected cells; host or cells: KJMGER8 (Namalwa KJM-1 human B-cell line stably expressing Gal4-ER), stably co-transfected with pAGal9-GPR4 and the CRE-luciferase reporter pACREpluc
Put plainly: Antagonistic action on GPR4 (luciferase reporter in GPR4 assay cells). Type of assay: cell-based. The conditions noted are these: 17β-estradiol 10 nmol/L, 6 hours, luciferase luminescence. As to the method:
Cells for GPR4 assay prepared in Referential Example 5 (said assay cells express GPR4 by stimulation with 17β-estradiol) were seeded on white plates at the rate of 10^5 cells/well, and a solution where 17β-estradiol (manufactured by Sigma) was diluted with a medium so as to make 10 nmol/L in the reaction solution and test compounds were added to the plate and the mixture was incubated at 37° C. for 6 hours in a 5% CO2 incubator. After that, a Steady Glo Luciferase Assay System (manufactured by Promega) solution was added to stop the reaction and the amount of luminescence during one second was measured using a Top Count (Packard, Meriden, Conn., U.S.A.).
Activity of the each of test compounds (antagonistic action) was expressed by an inhibition rate calculated on the basis of counts per second in the presence or absence of 17β-estradiol as shown by the following formula. IC50 value was calculated from the inhibition rate by a linear approximate analysis of the Logit-Log conversion method.
In the formula, A, B and C each have the following meaning, respectively.
A: counts per second when 17β-estradiol and the test compound were added
B: counts per second when neither 17β-estradiol nor the test compound was added
C: counts per second when only 17β-estradiol was added Inhibition Rate (%)=[1−{(A−B)/(C−B)}]×100
2 μl of plasmid pAGal9-GPR4 with inducible expression of GPR4 and 2 μl of reporter plasmid pACREpluc were co-transferred into 6×10^6 cell of KJMGER8 by the above-mentioned electroporation. The transformants were suspended in 8 ml of an RPMI 1640-ITPSG medium and cultured in a CO2 incubator at 37° C. for 24 hours. After the cultivation, blasticidin S ([…]), hygromycin B (300 μg/ml) and geneticin ([…]) were added and cultivation was carried out for 14 days more, and stable transformants (called GPR4 assay cells) were obtained. The transformants were subcultured in an RPMI 1640-ITPSG medium containing blasticidin S (2.0 μg/ml), hygromycin B (300 μg/ml) and geneticin ([…]).
For orientation: Reporter assays use an easily measured gene product as a stand-in for the process of interest.

The subject of a further assay is Itching Induced by SPC. Briefly: Suppressive effect on itching induced by SPC (scratching behavior in mice). The conditions noted are these: 300 mg/kg orally one hour before SPC (50 μg/site s.c.), counted for 60 minutes, ten mice per group. The assay is classed as in vivo, ddY male mice. The method, then:
SPC (50 μg/site) was subcutaneously administered (an SPC-administered group) to the rostal back of ddY male mice (3 to 4 weeks age), the mice were placed in a cage made of acrylic for the observation (7.5×7.5×15 cm) and behavior of the mice was taken by a video camera for 60 minutes in the absence of observing persons. The video camera was subjected to a playback and numbers of scratching behavior by hind limb were counted by visual observation. In a negative control group (a group to which a physiological saline was administered), a physiological saline (0.1 mL/site) was administered instead of SPC. In the compound-administered group, each compound 1 and compound 3 (300 mg/kg) was suspended in a 0.5 w/v % aqueous solution of methyl cellulose (MC) and orally administered at one hour before administration of SPC. In each of the SPC-administered group and the physiological saline-administered group, a 0.5 w/v % aqueous solution of MC (10 mL/kg) was orally administered at one hour before administration of SPC and physiological saline, respectively. The test was conducted for ten mice per group. Suppressive rate by the compounds for scratching behavior induced by SPC was calculated by the following formula. In the formula, A and B have the following meanings, respectively. […]

Assay [1] relates to Itching Induced by Compound 48/80. Briefly: Effect on itching induced by Compound 48/80 (scratching behavior in mice). The assay is classed as in vivo, ddY strain mice. The conditions noted are these: 300 mg/kg orally one hour before Compound 48/80 (10 μg/site s.c.); for Numbers of Scratching Behavior (numbers/60 min): ten mice per group; for Suppressive rate(%) of scratching behavior induced by Compound 48/80: versus Compound 48/80-administered group. As to the method:
Compound 48/80 (10 μg/site) was subcutaneously administered (a Compound 48/80-administered group) to the rostal back of ddY strain mice (4 weeks age), the mice were placed in a cage made of acrylic for the observation (7.5×7.5×15 cm) and behavior of the mice was taken by a video camera for 60 minutes in the absence of observing persons. The video camera was subjected to a playback and numbers of scratching behavior by hind limb were counted by visual observation. In a negative control group (a group to which a physiological saline was administered), a physiological saline (0.1 mL/site) was administered instead of Compound 48/80. In the compound-administered group, each compound 1 and compound 3 (300 mg/kg) was suspended in a 0.5 w/v % aqueous solution of methyl cellulose (MC) and orally administered at one hour before administration of Compound 48/80. In each of the Compound 48/80-administered group and the physiological saline-administered group, a 0.5 w/v % aqueous solution of MC was orally administered at one hour before administration of Compound 48/80 and physiological saline, respectively. The test was conducted for ten mice per group. Suppressive rate by the compound for scratching behavior induced by Compound 48/80 was calculated by the following formula.
In the formula, C and D have the following meanings.
C: numbers of scratching behavior of the Compound 48/80-administered group
D: numbers of scratching behavior of the compound-administered group Suppressive Rate (%)=[(C−D)/C]×100

Assay [2] has as its system Itching in Chronic Dermatitis Model to which Hapten was Repeatedly Applied. Put plainly: Effect on itching in chronic dermatitis model to which hapten (oxazolone) was repeatedly applied. As to conditions: mean ± standard error, control group 264 ± 29. The assay is classed as in vivo, BALB/c male mice. The method, then:
Preparation of chronic dermatitis model to which hapten was repeatedly applied was conducted according to the method by Kitagaki, et al. [Journal of Investigative Dermatology, volume 105, pages 749-755 (1995)] with some modifications.
With regard to hapten, oxazolone (manufactured by Sigma-Aldrich) was used and dissolved in acetone (manufactured by Kanto Kagaku) to prepare a 0.5 w/v % solution of oxazolone in acetone (antigen solution). The antigen solution (10 μL) was applied to the rostal back of BALB/c male mice (6 weeks age) with the hair was shaved to sensitize the mice. Starting from 7 days thereafter (day 0), the antigen solution (10 μL) was repeatedly challenged to apply at the same site until day 16 every two or three days to prepare chronic dermatitis models.
Compound 1 was suspended in a 0.5 w/v % aqueous solution of MC in a concentration of 10 and 30 mg/mL, respectively, and orally administered at a dose of 10 mL/kg at 1 hour before application of the antigen solution on the day 16. As a control group, a group to which only 0.5 w/v % aqueous solution of MC was similarly administered per os was prepared. […]
In order to adjust the mice to new environment, they were allowed to place for one hour in a cage (7.5×8×15 cm) made of acrylic for observation. […] The numbers of scraching behavior by hind limb to the applied site and around there were counted.

T1 sequence (P46093 whole entry E215Q, the tested form may be a part): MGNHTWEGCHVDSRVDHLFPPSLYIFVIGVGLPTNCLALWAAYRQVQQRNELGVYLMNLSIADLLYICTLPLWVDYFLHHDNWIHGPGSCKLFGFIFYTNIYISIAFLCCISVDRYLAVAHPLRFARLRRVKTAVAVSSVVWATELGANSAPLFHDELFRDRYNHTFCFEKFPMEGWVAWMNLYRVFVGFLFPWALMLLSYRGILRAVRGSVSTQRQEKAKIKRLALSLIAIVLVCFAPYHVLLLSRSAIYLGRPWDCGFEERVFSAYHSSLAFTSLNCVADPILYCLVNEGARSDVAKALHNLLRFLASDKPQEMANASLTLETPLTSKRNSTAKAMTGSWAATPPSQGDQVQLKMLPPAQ

A word on the IC50: it is the midpoint of a concentration-inhibition curve. High values mean weaker potency in that assay, low ones greater potency in that assay. For `CCc1nc2c(C)cc(C)nc2n1Cc1ccc2c(c1)CCc1cc(CN3CCN(C)CC3)ccc1N2` [Compound 1, 2-(2-Ethyl-5,7-dimethyl-3H-imidazo[4,5-b]pyridin-3-ylmethyl)-8-(4-methylpiperazin-1-ylmethyl)-10,11-dihydro-5H-dibenz[b,f]azepine], at GPR4, the half-maximal inhibitory concentration (IC50) was 4 nM. The “Numbers of scratching behavior of the compound-administered group” value in the assay with Itching Induced by SPC is 13. Also, in assay [1], the “Numbers of Scratching Behavior (numbers/60 min)” value is reported as 16 numbers/60 min and the “Suppressive rate(%) of scratching behavior induced by Compound 48/80” value was determined as 54%. Besides, the “Numbers of Scratching Behavior for 1 Hour after Application of Hapten” value in assay [2] (100 mg/kg orally 1 hour before antigen application on day 16) is 138 ± 33. For the same compound, in assay [2] (300 mg/kg orally 1 hour before antigen application on day 16), the “Numbers of Scratching Behavior for 1 Hour after Application of Hapten” value was 2 ± 1.
In the case of `CCc1nc2c(C)cc(C)nc2n1Cc1ccc2c(c1)CCc1cc(CN3CC=CCC3)ccc1N2` [Compound 2, 2-(2-Ethyl-5,7-dimethyl-3H-imidazo[4,5-b]pyridin-3-ylmethyl)-8-(1,2,5,6-tetrahydropyridin-1-ylmethyl)-10,11-dihydro-5H-dibenz[b,f]azepine], at GPR4, the concentration for half-maximal inhibition (IC50) was found to be 3.2 nM.
Regarding `CCc1nc2c(C)cc(C)nc2n1Cc1ccc2c(c1)CCc1cc(CN3CCCC3)ccc1N2` [Compound 3, 2-(2-Ethyl-5,7-dimethyl-3H-imidazo[4,5-b]pyridin-3-ylmethyl)-8-(pyrrolidin-1-ylmethyl)-10,11-dihydro-5H-dibenz[b,f]azepine], on GPR4, the IC50 is 2.3 nM. Moreover, in the assay on Itching Induced by SPC, the “Numbers of scratching behavior of the compound-administered group” value is given as 18. Moreover, in assay [1], the “Numbers of Scratching Behavior (numbers/60 min)” value turned out to be 26 numbers/60 min and the “Suppressive rate(%) of scratching behavior induced by Compound 48/80” value was 52%.
In turn, `CCc1nc2c(C)cc(C)nc2n1Cc1ccc2c(c1)CCc1cc(CN3CCOCC3)ccc1N2` [Compound 4, 2-(2-Ethyl-5,7-dimethyl-3H-imidazo[4,5-b]pyridin-3-ylmethyl)-8-morpholinomethyl-10,11-dihydro-5H-dibenz[b,f]azepine] gave an IC50 at GPR4 of 5.8 nM.
The same measure, in the same setting: for `CCc1nc2c(C)cc(C)nc2n1Cc1ccc2c(c1)CCc1cc(CN3CC(C)CC(C)C3)ccc1N2` (stereo not shown) [Compound 5] the value was 14 nM.
